These results are taken from publication PMC8504695, “Structure-Based Virtual Screening and Identification of Potential Inhibitors of SARS-CoV-2 S-RBD and ACE2 Interaction” (Frontiers in Chemistry, 2021).

Usually Kd stands for a measure of binding affinity in units of concentration. Lower therefore signals a tighter complex. One may read the inhibition as the relative decrease from the control value, in per cent.

In one series the test system is SARS-CoV-2-S pseudovirus. Put plainly: microbe, parasite or virus in culture. The class given is cell-based. The conditions noted are these: for IC50: Pseudovirus, HEK-293T, read-out: IC50 of Anti-SARS-CoV-2-S pseudovirus; for %I, SARS-CoV-2-S pseudovirus inhibition ratio at MNCC: fitted from the inhibition curve.
The target in the next series is SARS-CoV-2 S-RBD (Severe acute respiratory syndrome coronavirus 2, UniProt P0DTC2). The experiment in a line: SPR binding assay, immobilized S-RBD (BIAcore T200). Particulars: for Kd: immobilized S-RBD, PBS pH 7.4, 25°C; for Binding to SARS-CoV-2 S-RBD by SPR (in words): up to 100,000 nM analyte.
The target of series [1] is SARS-CoV-2 S-RBD/ACE2 interaction (UniProt P0DTC2+Q9BYF1). The experiment in a line: cell-based. On the set-up: species or system SARS-CoV-2 / human. Particulars: for inhibition at 20 µM / inhibition at 50 µM: HEK293; for IC50: HEK293 cells, 3 h incubation, n = 3, read-out: IC50 NanoBiT (inhibition of SARS-CoV-2 S-RBD/ACE2 interaction).
Sequence of SARS-CoV-2 S-RBD/ACE2 interaction (Q9BYF1 19-615 limits assumed, other chains not shown): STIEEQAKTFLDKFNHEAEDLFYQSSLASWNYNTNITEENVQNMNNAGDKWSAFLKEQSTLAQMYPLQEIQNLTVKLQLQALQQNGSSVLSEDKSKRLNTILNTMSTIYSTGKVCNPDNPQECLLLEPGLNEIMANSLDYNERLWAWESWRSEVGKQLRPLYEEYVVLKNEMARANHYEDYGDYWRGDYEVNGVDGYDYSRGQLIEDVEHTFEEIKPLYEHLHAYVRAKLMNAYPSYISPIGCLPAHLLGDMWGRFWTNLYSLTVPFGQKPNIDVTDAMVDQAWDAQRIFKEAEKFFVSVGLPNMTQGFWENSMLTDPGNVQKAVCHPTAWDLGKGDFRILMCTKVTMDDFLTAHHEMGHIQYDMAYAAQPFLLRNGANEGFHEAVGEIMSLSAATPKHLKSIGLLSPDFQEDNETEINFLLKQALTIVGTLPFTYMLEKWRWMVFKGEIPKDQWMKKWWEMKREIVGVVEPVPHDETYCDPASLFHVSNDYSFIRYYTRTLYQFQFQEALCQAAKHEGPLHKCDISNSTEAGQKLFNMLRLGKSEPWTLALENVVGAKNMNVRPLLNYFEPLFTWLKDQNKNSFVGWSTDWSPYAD
Series [2] deals with ACE2-expressing HEK293T cells. Particulars: concentration required to retain cell viability by 90%.
The test system of the next series is HEK293 cells. Particulars: human.
A short description of a further series: in vitro. The conditions noted are these: human.
For a further series, the target named is NanoLuc luciferase (Oplophorus gracilirostris, UniProt Q9GV45, A31E/A60N/A81I/F95D/I117V/K70R/L54V/L99Q/M102K/N193R/P142E/Q151K/Q38R/Q45L/V71I/Y165I). Put plainly: cell-based. The conditions noted are these: read-out: IC50 NanoLuc (inhibition of NanoLuc luciferase).
Sequence of NanoLuc luciferase (Q9GV45 other isoform, or with tags, fused parts or gaps with the stated changes): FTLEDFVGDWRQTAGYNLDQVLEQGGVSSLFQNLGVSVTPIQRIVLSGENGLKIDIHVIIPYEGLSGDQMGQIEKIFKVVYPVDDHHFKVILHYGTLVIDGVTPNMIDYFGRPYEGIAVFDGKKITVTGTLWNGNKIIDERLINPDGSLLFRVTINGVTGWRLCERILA
A further series deals with human ACE2 (Homo sapiens, UniProt Q9BYF1). Put plainly: SPR binding assay, immobilized ACE2 (BIAcore T200). Particulars: for Kd: immobilized ACE2, PBS pH 7.4, 25°C; for Binding to human ACE2 by SPR (in words): up to 100,000 nM analyte. As for the experimental part:
A BIAcore T200 instrument (GE Healthcare Life Sciences, United States) was used to evaluate the binding affinity of the test compounds to human ACE2 or SARS-CoV-2 S-RBD as previously described ([Li et al., 2017]). Briefly, both proteins were respectively immobilized on the different channels of CM5 sensor chip by a standard amine-coupling approach at a flow rate of 10 μL/min in 10 mM sodium acetate buffer (pH 4.0). The sensor surface was activated with a 7 min injection of the mixture of 50 mM N-hydroxysuccinimide (NHS) and 200 mM 1-ethyl-3-(3-dimethylaminopropyl) carbodiimide (EDC). Then 10 μg/ml of human ACE2 or 50 μg/ml of SARS-CoV-2 S-RBD was injected for 420 s and the surface was blocked with 1 M ethanolamine, pH 8.5. Series concentrations of the test compounds were injected into the flow system at a flow rate of 30 μL/min for 90 s, and the dissociation was 120 s. All binding analysis was performed in phosphate buffered saline (PBS) with 0.05% (v/v) Tween-20 and 1% DMSO (pH 7.4) at 25°C. Prior to analysis, double reference subtractions and solvent corrections were made to eliminate bulk refractive index changes, injection noise, and data drift. The binding affinity was determined by fitting to a Langmuir 1:1 binding model within the BIAcore Evaluation software (GE Healthcare Life Sciences, United States).
(Surface plasmon resonance follows binding to a sensor surface in real time, without labels.)

Another series concerns SARS-CoV-2 pseudovirus. Particulars: cited from earlier work.

Some results are limits rather than exact numbers.

Sequence of human ACE2 (Q9BYF1 18-805): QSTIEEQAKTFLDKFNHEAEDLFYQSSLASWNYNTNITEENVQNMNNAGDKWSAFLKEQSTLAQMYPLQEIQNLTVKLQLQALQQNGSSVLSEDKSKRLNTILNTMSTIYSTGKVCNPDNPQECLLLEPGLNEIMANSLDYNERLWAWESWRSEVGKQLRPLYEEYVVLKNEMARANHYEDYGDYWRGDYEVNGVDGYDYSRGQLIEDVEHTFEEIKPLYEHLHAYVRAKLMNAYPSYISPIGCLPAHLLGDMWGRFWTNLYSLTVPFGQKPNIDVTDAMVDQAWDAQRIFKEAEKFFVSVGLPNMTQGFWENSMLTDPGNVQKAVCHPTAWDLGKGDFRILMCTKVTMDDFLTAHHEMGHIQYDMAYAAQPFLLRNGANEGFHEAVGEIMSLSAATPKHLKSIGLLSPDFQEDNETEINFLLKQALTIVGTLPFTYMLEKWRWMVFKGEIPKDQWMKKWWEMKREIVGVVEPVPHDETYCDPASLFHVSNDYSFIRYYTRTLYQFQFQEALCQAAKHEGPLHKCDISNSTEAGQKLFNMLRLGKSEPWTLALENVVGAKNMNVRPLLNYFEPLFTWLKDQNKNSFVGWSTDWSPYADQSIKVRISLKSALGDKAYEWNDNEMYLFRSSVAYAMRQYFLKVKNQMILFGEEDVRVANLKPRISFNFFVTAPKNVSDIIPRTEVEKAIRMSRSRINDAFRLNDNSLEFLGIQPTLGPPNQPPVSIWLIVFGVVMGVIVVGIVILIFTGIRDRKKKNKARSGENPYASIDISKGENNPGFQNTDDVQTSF

Consider `O=C(N/N=C/c1cc([N+](=O)[O-])ccc1Cl)c1cc(O)cc(O)c1` [DC-RA016], for which, in the series with SARS-CoV-2-S pseudovirus, the “SI, selectivity index” value is on record as more than 4.46; the IC50 amounted to 22.4 µM; the “%I, SARS-CoV-2-S pseudovirus inhibition ratio at MNCC” value is 52.08%. Also, at SARS-CoV-2 S-RBD, the Kd was determined as 85.1 µM and the “Binding to SARS-CoV-2 S-RBD by SPR (in words)” value (“Binding to SARS-CoV-2 S-RBD” below) is “showed binding”. For the same compound, in series [1], the inhibition at 20 µM came to 73.1%, the inhibition at 50 µM is 73.1% and the IC50 worked out at 26.6 µM. In addition, in series [2], the “MNCC, maximum non-cytotoxic concentration” value was found to be 95.81 µM. Moreover, the “CC50 / IC50 Cytotox (HEK293 cell proliferation)” value (“CC50 / IC50 Cytotox” below) in the series on HEK293 cells is more than 100.00 µM. Also, the CC50 in “in vitro” was more than 100 µM. Also, the IC50 on NanoLuc luciferase is more than 100 µM. At human ACE2, binding was characterised by a dissociation constant (Kd) of 147 µM and the “Binding to human ACE2 by SPR (in words)” value is “could bind”.
For `O=C(N/N=C/c1cc([N+](=O)[O-])ccc1Cl)c1cccc([N+](=O)[O-])c1` [DC-RA016-3], in series [1], the inhibition at 20 µM came to 1.7% and the inhibition at 50 µM worked out at 24.2%.
For `Cc1cccc(/C=N/NC(=O)c2cc(O)cc(O)c2)c1` [DC-RA016-11], in that order: 4.8% and 12.7%.
As for `O=C(N/N=C/c1cc([N+](=O)[O-])ccc1Cl)c1ccc(O)c(O)c1` [DC-RA016-8], in [1], the inhibition at 20 µM amounted to 6.7% and the inhibition at 50 µM is -18.3%.
For `COc1ccc(C(=O)C[C@]2(O)C(=O)N(CCOc3ccccc3OC)c3ccccc32)c(OC)c1` [DC-RA076], in the series on SARS-CoV-2-S pseudovirus, the “SI, selectivity index” value came out at 2.95; the IC50 was found to be 8.37 µM; the “%I, SARS-CoV-2-S pseudovirus inhibition ratio at MNCC” value was 5.75%. Further, the “Binding to SARS-CoV-2 S-RBD” value on SARS-CoV-2 S-RBD is “no binding”. Besides, the IC50 in series [1] amounted to 75.6 µM. In series [2], the “MNCC, maximum non-cytotoxic concentration” value was 2.64 µM. In addition, the “CC50 / IC50 Cytotox” value in the series with HEK293 cells is more than 100.00 µM. Also, the CC50 in “in vitro” was 24.7 µM. Further, on NanoLuc luciferase, the IC50 is more than 100 µM. Further, the “Binding to human ACE2 by SPR (in words)” value at human ACE2 was “no binding”.
Consider `O=C(N/N=C/c1ccccc1O)c1cc(O)cc(O)c1` [DC-RA016-9], for which, in series [1], the inhibition at 20 µM amounted to 0.6%, the inhibition at 50 µM was found to be 88.6% and the IC50 was determined as 73.8 µM.
Consider `Cc1ccccc1C(=O)N/N=C/c1cc([N+](=O)[O-])ccc1Cl` [DC-RA016-4], for which, in series [1], the inhibition at 20 µM is -3.8% and the inhibition at 50 µM is -24.9%.
Regarding `O=C(N/N=C/c1cc([N+](=O)[O-])ccc1Cl)c1ccccc1O` [DC-RA016-5], in series [1], the inhibition at 20 µM was found to be 8.7% and the inhibition at 50 µM came to 24.9%.
On to `O=C(N/N=C/c1cc([N+](=O)[O-])ccc1Cl)c1cccc(Br)c1` [DC-RA016-1], for which, in series [1], the inhibition at 20 µM amounted to 3.1% and the inhibition at 50 µM worked out at 7.4%.
Take `O=C(N/N=C/c1cc([N+](=O)[O-])ccc1Cl)c1ccccc1I` [DC-RA016-2]: in series [1], the inhibition at 20 µM came to 0.8% and the inhibition at 50 µM came out at 22.5%.
As to `C=Cc1c(C)c2cc3nc(cc4[nH]c(cc5nc(cc1[nH]2)C(C)=C5CCC(=O)O)c(CCC(=O)OC)c4C)[C@@]1(C)C3=CC=C(C(=O)OC)[C@H]1C(=O)OC` [Visudyne], in the series on SARS-CoV-2 pseudovirus (cytotoxicity data not reported, ref Fu et al., 2020), the “Antiviral activity against SARS-CoV-2 pseudovirus (in words)” value is on record as “intense antiviral activity”.
For `COc1cc(-c2nc3ccccc3s2)ccc1OCC(=O)Nc1ccc(C)cc1` [DC-RA087], in the series with SARS-CoV-2-S pseudovirus, the “SI, selectivity index” value is more than 4.75; the IC50 was 21.1 µM; the “%I, SARS-CoV-2-S pseudovirus inhibition ratio at MNCC” value is reported as 36.74%. Besides, the “Binding to SARS-CoV-2 S-RBD” value on SARS-CoV-2 S-RBD is recorded as “No binding”. Further, the IC50 in [1] is 86.2 µM. Further, the “MNCC, maximum non-cytotoxic concentration” value in [2] was found to be 14.01 µM. Also, the “CC50 / IC50 Cytotox” value in the series on HEK293 cells was more than 100.00 µM. Further, in “in vitro”, the CC50 was more than 100 µM. The IC50 at NanoLuc luciferase was more than 100 µM. The “kd to ACE2 (SPR)” value on human ACE2 (immobilized ACE2) stood at 0.3217 s⁻¹. The kon on human ACE2 (pH 7.4, immobilized ACE2, read-out: ka to ACE2 (SPR)) was 56.4 M⁻¹ s⁻¹. In addition, the “Binding to human ACE2 by SPR (in words)” value on human ACE2 is given as “could bind”.
On to `O=C(N/N=C/c1cc([N+](=O)[O-])ccc1Cl)c1ccc(O)cc1` [DC-RA016-7], for which, in series [1], the inhibition at 20 µM turned out to be 10.6% and the inhibition at 50 µM turned out to be 20.2%.
For `O=C(N/N=C/c1cc([N+](=O)[O-])ccc1Cl)c1ccc(O)cc1O` [DC-RA016-6], in that order: 1.9% and 2.9%.
Consider `C[C@@]1(C(=O)O)CC[C@]2(C)CC[C@]3(C)C4=CC(=O)c5c(cc(O)c(O)c5C=O)[C@]4(C)CC[C@@]3(C)[C@@H]2C1` [demethylzeylasteral], for which the “Inhibitory activity against SARS-CoV-2 pseudovirus” value in the series with SARS-CoV-2 pseudovirus (under nontoxic concentration, ref Zhu et al., 2021) is listed as “approximately 7%”.
As for `CCOc1ccc(N(CC(=O)Nc2ccccc2C(=O)NCc2ccco2)S(=O)(=O)c2ccc(OC)c(OC)c2)cc1` [DC-RA106], in the series on SARS-CoV-2-S pseudovirus, the “SI, selectivity index” value is more than 1.41; the IC50 is 70.8 µM; the “%I, SARS-CoV-2-S pseudovirus inhibition ratio at MNCC” value is given as 0.14%. At SARS-CoV-2 S-RBD, the Kd is more than 100 µM and the “Binding to SARS-CoV-2 S-RBD” value is on record as “showed binding”. Moreover, the IC50 in [1] worked out at 24.7 µM. Moreover, the “MNCC, maximum non-cytotoxic concentration” value in [2] amounted to 13.24 µM. Further, the “CC50 / IC50 Cytotox” value with HEK293 cells is more than 100.00 µM. In the series “in vitro”, this compound came in with a CC50 of more than 100 µM. For the same compound, the IC50 at NanoLuc luciferase was more than 100 µM. On human ACE2, the Kd was more than 100 µM and the “Binding to human ACE2 by SPR (in words)” value was “could bind”.
For `O=C(N/N=C/c1ccc(Cl)c([N+](=O)[O-])c1)c1cc(O)cc(O)c1` [DC-RA016-12], in series [1], the inhibition at 20 µM is 61.3%, the inhibition at 50 µM stood at 88.9% and the IC50 came to 26.1 µM.
`Cc1ccccc1/C=N/NC(=O)c1cc(O)cc(O)c1` [DC-RA016-10]: in [1], the inhibition at 20 µM was -6.5% and the inhibition at 50 µM was -17.7%.
